Data published in patent US20140249156A1, “Treatment Of Blood Lipid Abnormalities And Other Conditions” (GlaxoSmithKline LLC, priority 2011, published 2014).

Legend:
male Crl:CD(SD) rats = assay: Appearance of radiolabeled cholesterol (chylomicrons) in circulation after labeled oral fat challenge with triton block; assay type: in vivo, rat; conditions: vs vehicle; for appearance of 3H cholesterol (CPM) in the serum: 3H cholesterol tracer
Text: A rat model (male Crl:CD(SD) rats) was used for the evaluation of a diverse set of GPR119 agonists. The objective of the studies was to determine if administration of a single dose of an agonist affects the appearance of chylomicrons containing either ^3H- or ^14C-cholesterol in circulation of fasted Crl:CD(SD) rats.
In order to track chylomicron appearance in circulation, radiolabeled cholesterol (with or without radiolabeled retinol) was co-administered with olive oil by oral gavage. Both tracers label the chylomicron core as the cholesterol administered is esterified in the enterocyte, packaged into the chylomicron, and released into the lymphatic system for transport to the systemic circulation. In order to assess appearance and accumulation of the newly formed chylomicrons in circulation, triton was administered by intravenous injection to block the clearance of these particles from circulation.
The rats had been previously instrumented with an implanted jugular catheter to facilitate obtaining multiple blood samples without stress to the animal. Rats were fasted overnight prior to labeled oral fat challenge. All compounds were dosed one hour prior to the challenge test. Treatment groups were randomized by body weight.
All compounds were administered at 5 mL/kg by the oral route as suspensions in hydroxypropylmethylcellulose (0.5%) which contained 0.1% Tween 80. Triton (250 mg/kg) was administered by intravenous injection immediately prior to an oral gavage of the tracer mixed with olive oil. Total volume of olive oil administered per rat was 2 mL, which contained (per 2 mL olive oil) either:
5-10 uCi ^14C-cholesterol (alone or in combination with 80 uCi ^3H-retinol)
5-20 uCi ^3H-cholesterol.
Blood samples were taken at the following time points: 0.25, 0.5, 0.75, 1, 2, 3, 4, 5 and 6 hours post olive oil gavage. Samples were spun at 8,000×g for 8 minutes at room temperature and 100 uL aliquots of serum counted for ^3H or ^14C.

humans = conditions: cited from earlier work
[1] = single oral dose 30 mg/kg one hour before olive oil containing 14C cholesterol
[2] = previously discovered, patients

CC(C)c1noc(N2CCC(COc3ccc(-c4ccc(S(C)(=O)=O)cc4)nc3)CC2)n1 [Compound A, 5-[({1-[3-(1-methylethyl)-1,2,4-oxadiazol-5-yl]-4-piperidinyl}methyl)oxy]-2-[4-(methylsulfonyl)phenyl]pyridine]
appearance of 3H cholesterol (CPM) in the serum (male Crl:CD(SD) rats; single oral dose 3 mg/kg): decreased
appearance of 14C labeled chylomicrons in circulation (male Crl:CD(SD) rats; single oral dose 3 mg/kg, olive oil containing 14C cholesterol): significantly reduced
appearance of 3H cholesterol (CPM) in the serum (male Crl:CD(SD) rats; single oral dose 10 mg/kg): decreased
appearance of 14C labeled chylomicrons in circulation (male Crl:CD(SD) rats; single oral dose 10 mg/kg, olive oil containing 14C cholesterol): significantly reduced
appearance of 14C labeled chylomicrons in circulation (male Crl:CD(SD) rats; [1]): significantly reduced
fasting ApoB/B100 (humans; humans): reducing
fasting ApoB/B100:ApoA1 ratio (humans; humans): reducing
fasting ApoE (humans; humans): reducing
fasting HDL cholesterol (humans; humans): increasing
fasting LDL cholesterol (humans; humans): reduced
fasting LDL cholesterol:HDL cholesterol ratio (humans; humans): reducing
fasting non-HDL cholesterol (humans; humans): reducing
fasting plasma alanine aminotransferase (humans; humans): reducing
fasting plasma uric acid (humans; humans): reducing
fasting total cholesterol (humans; humans): reducing
fasting total cholesterol:HDL cholesterol ratio (humans; humans): reducing
fasting triglycerides (humans; humans): reducing
prandial triglycerides (humans; humans): reducing
rise in serum triglycerides that occurs following meals (humans; patients treated with Compound A): significantly blunted
HDL cholesterol (humans; [2]): raises
LDL cholesterol (humans; [2]): lowers
total cholesterol (humans; [2]): lowers

CC(C)c1noc(N2CCC([C@H](C)Oc3cnc(-c4ccc(S(C)(=O)=O)cc4)cn3)CC2)n1 [Compound B, 2-[((1S)-1-{1-[3-(1-methylethyl)-1,2,4-oxadiazol-5-yl]-4-piperidinyl}ethyl)oxy]-5-[4-(methylsulfonyl)phenyl]pyrazine]
appearance of 14C labeled chylomicrons in circulation (male Crl:CD(SD) rats; [1]): significantly reduced
appearance of 3H cholesterol (CPM) in the serum (male Crl:CD(SD) rats; single oral dose 30 mg/kg): decreased

Cc1ncccc1Oc1ncnc(OC2CCN(C(=O)OC(C)C)CC2)c1C.Cl [Compound G, 1-methylethyl 4-({5-methyl-6-[(2-methyl-3-pyridinyl)oxy]-4-pyrimidinyl}oxy)-1-piperidinecarboxylate hydrochloride]
appearance of 3H cholesterol (CPM) in the serum (male Crl:CD(SD) rats; single oral dose 30 mg/kg): significant reduced

Cc1cc(S(C)(=O)=O)ccc1N1CCc2c(OC3CCN(C(=O)OC(C)C)CC3)ncnc21 [Compound H, 1-methylethyl 4-({7-[2-methyl-4-(methylsulfonyl)phenyl]-6,7-dihydro-5H-pyrrolo[2,3-d]pyrimidin-4-yl}oxy)-1-piperidinecarboxylate]
appearance of 3H cholesterol (CPM) in the serum (male Crl:CD(SD) rats; single oral dose 30 mg/kg): significant reduced

CC(C)n1nnc(N2CCC([C@H](C)Oc3cnc(-c4ccc(S(C)(=O)=O)cc4)cn3)CC2)n1 [Compound I, 2-[((1S)-1-{1-[2-(1-methylethyl)-2H-tetrazol-5-yl]-4-piperidinyl}ethyl)oxy]-5-[4-(methylsulfonyl)phenyl]pyrazine]
appearance of 3H cholesterol (CPM) in the serum (male Crl:CD(SD) rats; single oral dose 30 mg/kg): significant reduced

C[C@@H](OC1CCN(C(=O)OC(C)(C)C)CC1)c1nc(-c2ccc(S(C)(=O)=O)c(F)c2)no1 [Compound J, 1,1-dimethylethyl 4-[((1R)-1-{3-[3-fluoro-4-(methylsulfonyl)phenyl]-1,2,4-oxadiazol-5-yl}ethyl)oxy]-1-piperidinecarboxylate]
appearance of 3H cholesterol (CPM) in the serum (male Crl:CD(SD) rats; single oral dose 30 mg/kg): significant reduced
